Test results as given in ChEMBL document CHEMBL5303711, “ECBD screening data for assay EOS300108” (2023).
The source made the active and inactive calls. The rule behind the calls is not given here.

Experiment: Cytotoxicity activity against human HepG2 cells assessed by CellTiter-Glo luminescent cell viability assay.
Assay type: toxicity, cell-based
Parameters: assay stage confirmatory assay, source tissue liver
Conditions: HepG2 cells, read-out: IC50 relative

Row | Structure (SMILES) | CC50
1 | CCCCN(CC)CCCNC(=O)c1cc2c(=O)n(C)c3ccccc3c2n1C | 11.8 µM (active)
2 | Cc1cccc(N2CCN(C(=O)C3CCCN(S(=O)(=O)c4ccc5c(c4)oc(=O)n5C)C3)CC2)c1C (configuration not stated) | 6.1 µM (active)
3 | CCN(CC)C(=O)c1sc2[nH]c(-c3ccccn3)nc(=O)c2c1C | 6 µM (active)
4 | O=C(NO)c1ccc(I)cc1 | 12.2 µM (active)
5 | O=C(Cn1ncc(Cl)c(Cl)c1=O)N(Cc1ccco1)CC(F)(F)F | 6.6 µM (active)
6 | O=C(Nc1nc(-c2ccccn2)cs1)c1ccc(-n2cncn2)cc1 | 1.5 µM (active)
7 | CN(C)c1ccnc(CNC(=O)Nc2ncc(C(F)(F)F)s2)c1 | 0.6 µM (active)
8 | Cc1cccc2cc(C(=O)Nc3ccc(N4CCN(C)CC4)cn3)oc12 | 12.6 µM (active)
9 | O=C(Cc1cccc(F)c1)Nc1cccc2ncccc12 | 14.5 µM (inactive)
10 | COc1cc(CNc2cc(C)nc(N)n2)ccc1C | 6.7 µM (active)
11 | NCCn1cc(C(=O)N2CCN(Cc3ccc(Br)s3)CC2)nn1 | 7.4 µM (active)
12 | CC[C@H]1CC[C@@H](C)N(C(=O)c2nc(C3CC3)n3ccccc23)C1 | 7.5 µM (active)
13 | O=c1[nH]c(Cc2ccc(-n3cccn3)cc2)nc2ccccc12 | 2.1 µM (active)
14 | CCN(C)C[C@H]1CCN(CCCC2CCCCC2)C1 | 4.5 µM (active)
15 | COc1cc(OC)cc(C(=O)NCc2nc3ncc(Br)cc3[nH]2)c1 | 3.7 µM (active)
16 | Cc1cc(C(=O)Nc2ccccn2)c2ccccc2n1 | 2.1 µM (active)
17 | CN(C)CCNC(=O)Cn1c(Cc2ccccc2)nn(-c2ccc(Cl)cc2)c1=O | 11.7 µM (active)
18 | O=c1c2ccccc2sn1CN1CCN(c2ccc(C(F)(F)F)cn2)CC1 | 8.6 µM (active)
19 | C[C@@H]1Oc2ccc(NC(=O)c3ccc(S(=O)(=O)NCc4ccco4)cc3)cc2NC1=O | 6.8 µM (inactive)
20 | NC(=O)c1coc(-c2csc(-c3ccccc3O)n2)c1 | 2.5 µM (active)
21 | Cc1nc(NC(=O)c2ccc(C)c(Br)c2)n(C)n1 | 11.7 µM (active)
22 | CNC(=O)c1nnn(-c2ccc3ncccc3c2)c1C | 2.2 µM (active)
23 | CC1(C)CCCN(c2ccnc(N[C@H]3CCCOCC3)n2)C1 | 8 µM (active)
24 | Cn1cncc1C(=O)N1CCCN(Cc2ccccc2)c2ccccc21 | 11.5 µM (inactive)

Row | Structure (SMILES) | CC50
25 | Cc1cc(N2CCN([C@@H](C)c3nc(C(C)(C)C)no3)CC2)nc(C(C)C)n1 | 11.9 µM (active)
26 | Cn1c(NC(=O)c2cccc3cc[nH]c23)nc2ccccc21 | 2.3 µM (active)
27 | CCCOc1ccccc1-n1c(C)cn2c3c(=O)n(C)c(=O)n(C)c3nc12 | 6.7 µM (active)
28 | COc1cc(F)ccc1NC(=O)c1ccc(-c2ccccn2)[nH]c1=O | 11 µM (active)
29 | COc1ccc(-c2nc(CN3CCN(C(=O)c4ccc5c(c4)OCO5)CC3)cs2)cc1 | 7.8 µM (active)
30 | Cc1cc(C(=O)Nc2cccc(N(C)C(=O)c3coc(C)c3)c2)co1 | 1.3 µM (active)
31 | CNc1snc(C)c1C(=O)N[C@@H](C)c1ccc2c(c1)OCCCO2 | 4.2 µM (active)
32 | Cc1cccc2nc(C(=O)Nc3ccc4c(c3)OC3(CCCC3)O4)cn12 | 11.9 µM (active)
33 | COc1ccc(C)cc1CN(C)C(=O)CCN1C(=O)COc2ccccc21 | 5.1 µM (inactive)
34 | O=C(c1cccc2cnccc12)N1CCc2c(nc(-c3ccccc3)[nH]c2=O)C1 | 1.5 µM (active)
35 | COc1ccc(S(=O)(=O)N2CCN(C(=O)c3ccc(-c4ccc(C(C)=O)cc4)o3)CC2)cc1OC | 8.5 µM (active)
36 | COc1cc(-c2ccccc2)sc1C(=O)NC1CC1 | 13.4 µM (active)
37 | CC(C)c1nn(-c2ccccc2)cc1CNCC(C)(C)N1CCN(C)CC1 | 4.9 µM (active)
38 | O=c1ccc2cc(S(=O)(=O)Nc3cccc4cccnc34)ccc2o1 | 3.5 µM (active)
39 | COc1ccc(CN(CC(=O)c2c(N)n(C)c(=O)n(C)c2=O)[C@@H](C)Cc2cccs2)cc1 | 7.2 µM (active)
40 | O=C(Cn1ncc(Cl)c(Cl)c1=O)NCCC1=CCCCC1 | 4.4 µM (active)
41 | O=C(NCc1ccc(-n2ccnc2)nc1)c1ccnc(O[C@H]2CCOC2)c1 | 8.9 µM (active)
42 | COc1ccc2c(c1)OC(C)(C)CN(C(=O)Nc1nc(C)no1)C2 | 11.9 µM (active)
43 | CCCc1cnc(NC(=O)CCc2nnc(-c3ccsc3)o2)s1 | 8.5 µM (active)
44 | COc1ccc(-n2ccc(CNc3ncnc(N)c3Cl)n2)cc1 | 3.1 µM (active)
45 | CCc1nccn1[C@H]1CCCN(CCOc2ccc(OC)cc2)C1 | 4.1 µM (active)
46 | O=C(Nc1nc(-c2ccco2)cs1)c1cccnc1N1CCOCC1 | 1.6 µM (active)
47 | c1ccc2c(OCCN3CCC(N4CCCCC4)CC3)cccc2c1 | 6.4 µM (active)
48 | Fc1cccc(N2CCCC2)c1CNc1nccc(N[C@H]2CCCOC2)n1 | 6.5 µM (active)

Row | Structure (SMILES) | CC50
49 | Cc1ccc(CN2CCN(C3CCNC3)CC2)c(Cl)c1Cl (configuration not stated) | 7.7 µM (active)
50 | COc1ccc(OC)c(N2C[C@@H](C(=O)Nc3ccc(Cl)cn3)CC2=O)c1 | 4.7 µM (active)
51 | Cc1cc(C)cc(-n2ncc3c(OCC(=O)N4CCN(C(=O)c5ccco5)CC4)ncnc32)c1 | 3.6 µM (active)
52 | Cc1cccc2nc(C(=O)Nc3cccnc3-n3cccn3)cn12 | 7 µM (active)
53 | Cc1cccc(N2CCN(CC(=O)c3c(N)n(CC(C)C)c(=O)n(C)c3=O)CC2)c1C | 10.7 µM (active)
54 | COc1ccc(C(=O)N2CCCN(CCc3nc4ccccc4n3C)CC2)cc1 | 11.3 µM (inactive)
55 | CCOc1ccc(NC(=O)C2CCN(S(=O)(=O)c3ccc4c(c3)OCCCO4)CC2)cc1 | 50 µM (inactive)
56 | N#Cc1ccc(NC(=O)Nc2cnn(-c3ccccc3)c2)cc1 | 8.9 µM (active)
57 | CC(C)Cn1ccnc1NC(=O)COc1ccc2ccccc2c1 | 1.1 µM (active)
58 | Cc1noc2ncnc(N3CCC(C(=O)N4CCN(c5cccc(Cl)c5)CC4)CC3)c12 | 9.6 µM (active)
59 | COc1cccc(NC(=O)CN(C)C(=O)Cn2ncc(Cl)c(Cl)c2=O)c1 | 8.5 µM (active)
60 | Cc1cccc(C(=O)Nc2nc3ccccc3[nH]2)n1 | 4.4 µM (active)
61 | O=C(Cn1ncc(Cl)c(Cl)c1=O)N1CCC[C@H]1c1cccs1 | 4.2 µM (active)
62 | CCC1(N(C)C)CCN(c2nc(N)c3cc(OC)c(OC)cc3n2)CC1 | 11.2 µM (active)
63 | O=C(Cn1nnc2ccccc21)Nc1nc(-c2ccccn2)cs1 | 1.7 µM (active)
64 | Cc1occc1-c1cc(NC(=O)N2CCC[C@H]2c2cccn2C)no1 | 1.1 µM (active)
65 | CCN(CC)S(=O)(=O)c1ccc(C(=O)Cn2ncc(Cl)c(Cl)c2=O)cc1 | 2 µM (active)
66 | NC(=O)c1cnc(NC(=O)c2cccc(S(=O)(=O)N3CCN(c4ccccc4)CC3)c2)s1 | 37.1 µM (inactive)
67 | COc1ccc(-c2noc(=O)n2Cc2ncc(C)c(OC)c2C)cc1OC | 6.2 µM (active)
68 | CCn1c(NC(=O)c2ccc(OC)c(OC)c2)nc2cc(C#N)ccc21 | 2.3 µM (active)
69 | c1cc2c(cc1C1=NN=C(NC3CC3)SC1)OCO2 | 9.1 µM (active)
70 | COc1ccc(C)cc1CN(C)C(=O)CCn1c(=O)[nH]c(=O)c2ccccc21 | 0.2 µM (active)
71 | CCN1C[C@H](CN(C)CC(=O)c2c(N)n(C3CC3)c(=O)[nH]c2=O)Oc2ccccc21 | 13.8 µM (inactive)
72 | Cc1ccc(CC(=O)N2CCN(C(=O)[C@@H]3CCCCO3)CC2)cc1 | 0.6 µM (active)
